This note sets out measurements from patent US9221761B2, “Method for inhibition of deubiquitinating activity” (Vivolux AB, priority 2011, dated 2015).

The subject of assay [1] is MelJuSo Ub-YFP reporter cell line. Kind of assay: Proteasome inhibition in reporter cell line, YFP accumulation in IncuCyte-FLR. To be noted: YFP accumulation measured for 48 hours; for MeJuSo-UB, lowest effective conc.: Table 2. It is filed as cell-based. An excerpt:
Cell culture. MCF7 cells are maintained in MEM/10% fetal calf serum. HCT-116 p53+/+, p53−/−, Bcl-2+/+, PUMA−/− and BAX−/− cells are maintained in McCoy's 5A modified medium/10% fetal calf serum. The HCT-116 p53+/+, p53−/−, PUMA−/− and BAX−/− are generated as described (25). The HCT-116 Bcl-2+/+ cell line was generated by transfecting parental HCT-116 p53+/+ cells with pCEP4 Bcl-2 (Addgene plasmid 16461) (26) and isolating high expression clones. FaDu and LLC3 cells are maintained in DMEM high glucose medium supplemented with 10% fetal calf serum, Na pyruvate, Hepes and non-essential amino acids. 4T1.12B carcinoma cells are maintained in RPMI medium supplemented with 10% fetal calf serum. The proteasome reporter cell line MelJuSo Ub-YFP was generated as described (12). Cells were maintained in Dulbecco's Modified Eagle's Medium/10% fetal calf serum. […] The retinal epithelial cell line was generated as described (28). All cells are maintained at 37° C. in 5% CO2.
The compound of the invention induces proteasome inhibition. The reporter cell line MelJuSo Ub-YFP, which is engineered to accumulate yellow fluorescent protein (YFP) upon proteasome inhibition (12), was used for compound evaluation. The accumulation of YFP was measured for 48 hours in an IncuCyte-FLR system (Essen Bioscience, Essen, UK), which is an automated fluorescence microscope. Numbers of positive cells per field were used as a measure of proteasome inhibition.

In another assay the test system is HCT116. Description: FMCA (Fluorometric Microculture Cytotoxicity Assay) cytotoxicity. The following applies: 72 hours of continuous compound exposure. It is filed as cell-based. On the procedure:
FIGS. 1a to 1o are diagrams illustrating induction of dose-dependent cytotoxicity after 72 hours of continuous compound exposure to the reporter cell line HCT-116 by embodiments of the compound of the invention, as measured FMCA (Fluorometric Microculture Cytotoxicity Assay), as well as absence of such induction by structurally related compounds not comprised by the invention. Treated cells were compared to untreated controls (survival index);
Determination of cell apoptosis and viability. For determination of apoptosis parental HCT-116 p53+/+ cells are treated with the increasing doses of the compound of the invention for 24 h. […] HCT-116 cells are seeded in 96-well microtiter plates at 10,000 cells per well and incubated overnight. Cells are treated with indicated drug for 24 h. At the end of the incubation period, NP40 is added to the tissue culture medium to 0.1% and 25 μl of the content of each well was assayed using the M30-Apoptosense® ELISA as previously described (31). Cell viability is determined by measuring acid phosphatase activity or using the FMCA method (32). For the acid phosphatase activity cells are seeded at 5000 cells per well in 96-well culture plates and incubated for 12 h at 37° C. Compounds are added to the cells in growth media and incubated for 72 h at 37° C. Cells are washed with 200 μl warm PBS. 100 μl of para-nitrophenyl phosphate (pNPP, 2 mg/ml) in Na acetate buffer pH 5 (NaAc 0.1 M, 0.1% Triton-X-100) is added per well. Cells are incubated for 2 h after which reaction was stopped by addition of 1N NaOH. Absorbance is measured at 405 nm. The dose-dependent cytotoxicity of a number of embodiments of the compound of the invention is illustrated in FIGS. 1a-1o.
For the FMCA assay cells are seeded in the drug-prepared 384-well plates using the pipetting robot Precision 2000 (Bio-Tek Instruments Inc., Winooski, Vt.). The plates are incubated for 72 h and then transferred to an integrated HTS SAIGAN Core System consisting of an ORCA robot (Beckman Coulter) with CO2 incubator (Cytomat 2C, Kendro, Sollentuna, Sweden), dispenser module (Multidrop 384, Titertek, Huntsville, Ala.), washer module (ELx 405, Bio-Tek Instruments Inc), delidding station, plate hotels, barcode reader (Beckman Coulter), liquid handler (Biomek 2000, Beckman Coulter) and a multipurpose reader (FLUOstar Optima, BMG Labtech GmbH, Offenburg, Germany) for automated FMCA. Survival index (SI) is defined as the fluorescence of test wells in percentage of controls with blank values subtracted.
FIGS. 3b, 3d, 3f are diagrams illustrating the cytotoxicity of compounds of the invention nos. 1546, 1547, and 1570 with a 7-membered ring moiety in comparison to structurally corresponding compounds not comprised by the invention with a 6-membered ring moiety. Their induction of dose-dependent cytotoxicity was determined after 72 hours of continuous compound exposure to the reporter cell line HCT-116. Treated cells were compared with untreated controls. Cytotoxicity is visualized as survival index (SI) over the range of about 90% SI to about 0% SI in dependence on compound concentration.

SMILES strings stand for the structures. pIC50: −log10 of the molar value.

As to `O=C1C(=Cc2cc(F)c(F)c(F)c2)CCN(C(=O)Cc2cccnc2)CC1=Cc1cc(F)c(F)c(F)c1` [Compound 1650], the “MeJuSo-UB, lowest effective conc.” value in assay [1] was found to be 1 µM. Also, the pIC50 (as a rule, the IC50 on a negative log10 scale, so that one unit is a factor of ten) in the assay with HCT116 (Table 2) was 5.72.
The like results for `O=C1C(=Cc2ccc(Cl)c(C(F)(F)F)c2)CCN(C(=O)Cc2cccnc2)CC1=Cc1ccc(Cl)c(C(F)(F)F)c1` [Compound 1655] were, in that order, 1 µM and 6.00.
As to `CN1CCC(=Cc2cccc([N+](=O)[O-])c2)C(=O)C(=Cc2cccc([N+](=O)[O-])c2)C1` [Compound 1620], the “MeJuSo-UB, IncuCyte lowest effective conc. (μM)” value in assay [1] (Table 1) is recorded as “no effect”. For the same molecule, in the assay with HCT116 (Table 1), the pIC50 was under 4.49.
Take `O=C1C(=Cc2ccc(Cl)cc2)CCNCC1=Cc1ccc([N+](=O)[O-])cc1` [Compound 1584]: the “MeJuSo-UB, IncuCyte lowest effective conc.” value in assay [1] (Table 1) was 2 µM. Further, the pIC50 in the assay on HCT116 (Table 1) was 5.74.
In the same order, the values of `N#Cc1ccc(C=C2CCNCC(=Cc3ccc(C#N)cc3)C2=O)cc1` [Compound 1625] are 0.5 µM and 6.05.
As for `O=C1C(=Cc2ccc(C(F)(F)F)cc2)CCN(C(=O)Cc2cccnc2)CC1=Cc1ccc(C(F)(F)F)cc1` [Compound 1641], the “MeJuSo-UB, lowest effective conc.” value in assay [1] worked out at 2 µM. Also, in the assay with HCT116 (Table 2), the pIC50 was 5.57.
With `COc1ccc(C=C2CN(C)CCC(=Cc3ccc([N+](=O)[O-])cc3)C2=O)cc1` [Compound 1588], the “MeJuSo-UB, IncuCyte lowest effective conc.” value in assay [1] (Table 1) came to 1 µM. Further, the negative-log IC50 (pIC50) with HCT116 (Table 1) is 5.51.
The like results for `CN1CCC(=Cc2ccc(F)c(Cl)c2)C(=O)C(=Cc2ccc(F)c(Cl)c2)C1` [Compound 1608] were, in that order, 1 µM and 5.74.
As for `CN1CCC(=Cc2ccc([N+](=O)[O-])cc2)C(=O)C(=Cc2ccc(Cl)cc2)C1` [Compound 1594], the “MeJuSo-UB, IncuCyte lowest effective conc.” value in assay [1] (Table 1) came out at 1 µM. Further, in the assay with HCT116 (Table 1), the pIC50 is 5.59.
In the same order, the values of `O=C1C(=Cc2ccc(Cl)cc2)CCNCC1=Cc1ccc([N+](=O)[O-])cc1` [Compound 1592] are 4 µM and 4.92.
Regarding `O=C1C(=Cc2ccc(Cl)cc2)CCNCC1=Cc1ccc(F)cc1` [Compound 1586], in assay [1] (Table 1), the “MeJuSo-UB, IncuCyte lowest effective conc.” value is 0.5 µM. The pIC50 in the assay on HCT116 (Table 1) was 5.96.
In the case of `CC(=O)N1CCC(=Cc2cc(F)c(F)c(F)c2)C(=O)C(=Cc2cc(F)c(F)c(F)c2)C1` [Compound 1629], in assay [1], the “MeJuSo-UB, lowest effective conc.” value is 1 µM. Moreover, the negative logarithm of the IC50 (pIC50) in the assay on HCT116 (Table 2) is 6.22.
The like results for `CC(=O)OCCC(=O)N1CCC(=Cc2ccc(Cl)c(C(F)(F)F)c2)C(=O)C(=Cc2ccc(Cl)c(C(F)(F)F)c2)C1` [Compound 1666] were, in that order, 1 µM and 5.89.
On to `CC(=O)N1CCC(=Cc2ccc(F)c(Cl)c2)C(=O)C(=Cc2ccc(F)c(Cl)c2)C1` [Compound 1631], for which the “MeJuSo-UB, lowest effective conc.” value in assay [1] was 32 µM. This molecule also had a pIC50 in the assay on HCT116 (Table 2) of 6.00.
As for `CC(=O)N1CCC(=Cc2ccc([N+](=O)[O-])cc2)C(=O)C(=Cc2ccc(Cl)cc2)C1` [Compound 1597], in assay [1], the “MeJuSo-UB, lowest effective conc.” value was found to be 1 µM. In the assay on HCT116 (Table 2), this molecule gave a pIC50 of 5.89.
Turning to `CC(=O)OCCC(=O)N1CCC(=Cc2cc(F)c(F)c(F)c2)C(=O)C(=Cc2cc(F)c(F)c(F)c2)C1` [Compound 1664], the “MeJuSo-UB, lowest effective conc.” value in assay [1] came out at 4 µM. The same molecule gave a negative-log IC50 (pIC50) with HCT116 (Table 2) of 5.55.
With `O=C1/C(=C/c2cc(F)c(F)c(F)c2)CCN(C(=O)Cc2ccccn2)C/C1=C\c1cc(F)c(F)c(F)c1` [Compound 1653], the “MeJuSo-UB, lowest effective conc.” value in assay [1] stood at 1 µM. In the assay on HCT116 (Table 2), the pIC50 is 6.15.
For `CN1CCC(=Cc2ccc(F)c([N+](=O)[O-])c2)C(=O)C(=Cc2ccc(F)c([N+](=O)[O-])c2)C1` [Compound 1565], the “MeJuSo-UB, IncuCyte lowest effective conc.” value in assay [1] (Table 1) turned out to be 0.5 µM. In addition, the pIC50 with HCT116 (Table 1) is 5.82.
The like results for `O=C1C(=Cc2ccc(F)cc2)CCNCC1=Cc1ccc([N+](=O)[O-])cc1` [Compound 1585] were, in that order, 2 µM and 5.82.
The like results for `COc1ccc(C=C2CNCCC(=Cc3ccc(F)cc3)C2=O)cc1` [Compound 1576] were, in that order, 8 µM and 5.80.
`CC(=O)N1CCC(=Cc2ccc(C(F)(F)F)cc2)C(=O)C(=Cc2ccc(C(F)(F)F)cc2)C1` [Compound 1627]: in assay [1], the “MeJuSo-UB, lowest effective conc.” value is 1 µM. In the assay with HCT116 (Table 2), the negative logarithm of the IC50 (pIC50) was 6.15.
Consider `CCCN1CC/C(=C\c2ccc(F)cc2)C(=O)/C(=C/c2ccc(F)cc2)C1` [Compound 1574, (3E,5E)-3,5-bis[(4-fluorophenyl)methylidene]-1-propylazepan-4-one], for which the “MeJuSo-UB, IncuCyte lowest effective conc.” value in assay [1] (Table 1) was determined as 0.5 µM. In the assay on HCT116 (Homo sapiens, HCT-116, Table 1), this molecule gave a pIC50 of 5.55.
As for `O=C(Cc1ccccn1)C(=O)N1CCC(=Cc2ccc(Cl)c(C(F)(F)F)c2)C(=O)C(=Cc2ccc(Cl)c(C(F)(F)F)c2)C1` [Compound 1658], the “MeJuSo-UB, lowest effective conc.” value in assay [1] stood at 0.5 µM. Further, in the assay on HCT116 (Table 2), the pIC50 was 6.10.
With `CC(=O)OCCC(=O)N1CCC(=Cc2ccc(F)c([N+](=O)[O-])c2)C(=O)C(=Cc2ccc(F)c([N+](=O)[O-])c2)C1` [Compound 1662], the “MeJuSo-UB, lowest effective conc.” value in assay [1] was determined as 1 µM. The same molecule had a pIC50 in the assay with HCT116 (Table 2) of 5.68.
Turning to `COc1ccc(C=C2CN(C(C)=O)CCC(=Cc3ccc([N+](=O)[O-])cc3)C2=O)cc1` [Compound 1581], in assay [1], the “MeJuSo-UB, lowest effective conc.” value came out at 8 µM. In addition, the pIC50 with HCT116 (Table 2) was 5.14.
Take `O=C1C(=Cc2ccc(F)cc2)CCNCC1=Cc1ccc(Cl)cc1` [Compound 1582]: the “MeJuSo-UB, IncuCyte lowest effective conc.” value in assay [1] (Table 1) is 2 µM. Further, the pIC50 in the assay with HCT116 (Table 1) is 5.77.
Turning to `CN1CCC(=Cc2ccc(Cl)c(C(F)(F)F)c2)C(=O)C(=Cc2ccc(Cl)c(C(F)(F)F)c2)C1` [Compound 1615], the “MeJuSo-UB, IncuCyte lowest effective conc.” value in assay [1] (Table 1) stood at 0.5 µM. For the same molecule, the pIC50 in the assay with HCT116 (Table 1) was 6.05.
Regarding `CCOC(=O)CCC(=O)N1CC/C(=C\c2ccc([N+](=O)[O-])cc2)C(=O)/C(=C/c2ccc([N+](=O)[O-])cc2)C1.O=C(O)C(F)(F)F` [Compound 1507, (3E,5E)-1-(4-ethoxy-4-oxobutanoyl)-3,5-bis[(4-nitrophenyl)methylidene]-4-oxoazepan-1-ium trifluoroacetate], the “MeJuSo-UB, lowest effective conc.” value in assay [1] was found to be 8 µM. The pIC50 with HCT116 (Homo sapiens, HCT-116, Table 2) was 5.36.
In the case of `CC(=O)OCC(=O)N1CC/C(=C\c2ccc(C(F)(F)F)cc2)C(=O)/C(=C/c2ccc(C(F)(F)F)cc2)C1` [Compound 1642], in assay [1], the “MeJuSo-UB, lowest effective conc.” value stood at 1 µM. This molecule also showed a pIC50 with HCT116 (Table 2) of 5.92.
In the same order, the values of `C=CC(=O)N1CCC(=Cc2ccc([N+](=O)[O-])cc2)C(=O)C(=Cc2ccc(OC)cc2)C1` [Compound 1580] are 8 µM and 5.82.
The like results for `CC(=O)OCCC(=O)N1CCC(=Cc2ccc(Cl)cc2)C(=O)C(=Cc2ccc(Cl)cc2)C1` [Compound 1633] were, in that order, 4 µM and 5.66.
